# Laboratory results as given in US20260224538A1 (Purdue Research Foundation, priority 2023, published 2026).
# Tests used:
# [1] = biological target: T1, transthyretin fragment peptide (TTR81-127) (Homo sapiens, UniProt P02766); assay: ThT fluorescence assay of TTR81-127 fibril formation; assay type: biochemical; settings: for remaining activity at 100 µM: compounds at 100 μM, TTR81-127 10 μM, control 0.25% DMSO, read-out: ThT TTR81-127 (%), maximum thioflavin T (ThT) intensity in percentage
# T1 construct: TTR fragment 81-127 was obtained from AnaSpec; purchased AnaSpec; host or cells: synthetic peptide
# Description: (§1) Thioflavin-T (ThT) fluorescence assays. Thioflavin-T (ThT) fluorescence assays were used to monitor fibril formation of recombinant Ap (fragments 1-40 and 1-42), recombinant α-syn, recombinant tau isoform 2N4R, synthetic IAPP, and synthetic TTR peptides treated with BTA and its derivatives. The IAPP ThT assay was performed in 10 mM PBS (pH 7.4) at a final concentration of 10 μM for both IAPP and ThT as published previously. Aβ fragments 1-40 and 1-42 were tested at 7 μM in 10 mM of PBS using ThT at a final concentration of 20 μM. Kinetics of α-syn fibrillization were performed as published previously.^36-37 TTR fragment kinetics of fibril formation were assessed at 10 μM in 100 mM sodium acetate buffer supplemented with 100 mM KCl and 1 mM ethylenediaminetetraacetic acid (EDTA) (pH 4) with 20 μM ThT. The fluorescence emission experiments were performed with the excitation and emission wavelengths set at 440 and 485 nm, respectively, with a Synergy HT multi-mode microplate reader (BioTek, Winooski, VT). Samples were measured in three replicates, and the experiments were repeated three times using at least two different stock solutions. For each time point, arbitrary units of fluorescence were calculated from the mean values normalized against the maximum value in each completed assay. The lag time for each condition was calculated as previously described. All results contained in histograms were presented as mean±SEM. Data were analyzed by the one-way analysis of variance with Dunnett's multiple comparisons between controls and compounds. Differences were considered statistically significant at p<0.05.
# α-syn [2] = biological target: T2, α-syn (Homo sapiens, UniProt P37840); assay: Photo-induced cross-linking of unmodified proteins (PICUP), α-syn oligomerization; assay type: biochemical; settings: compound 50 μM, molar ratio 1:5 (protein:compound)
# T2 construct: purchased rPeptide
# Description: (§2) Photo-induced Cross-linking of Unmodified Proteins (PICUP) Assay. To induce oligomerization by cross-linking, α-syn (from Rpeptide, LLC) and tau isoform 2N4R were diluted in 10 mM phosphate buffer (pH 7.4) to reach a final concentration of 10 μM. Different compounds were added to the protein solution at a final concentration of 50 μM, resulting in a molar ratio of 1:5. To confirm the gradual effect of the compounds on the inhibition of α-syn oligomerization, the compounds were tested at final concentrations of 3.125, 6.25, 12.5, 25, and 50 μM. The controls consisted of samples without light exposition, without Ru(bpy) or ammonium persulfate, and without compound (i.e., 0.125% DMSO). The cross-linking reaction was initiated by the addition of 2 μL of Ru(bpy) (300 μM final concentration) and 2 μL ammonium persulfate (6 mM final concentration). Samples were irradiated immediately. Light exposure was of a one-second duration for α-syn and a three-second duration for tau isoform 2N4R, with a 53 W (120 V) incandescent lamp installed in a homemade dark-box. Each tube contained a final volume of 20 μL. After irradiation, 8.3 μL of Laemmli loading buffer containing 15% β-mercaptoethanol were immediately added to the solution, followed by incubation at 95° C. for 10 minutes. The cross-linked samples were separated on a 16% SDS-PAGE gel and visualized by Coomassie blue staining.
# tau isoform 2N4R [3] = biological target: T3, tau isoform 2N4R (Homo sapiens, UniProt P10636); assay: PICUP, tau isoform 2N4R oligomerization; assay type: biochemical; settings: compound 50 μM
# T3 construct: made in house; host or cells: E. coli BL21(DE3)
# Description: (§3) The bacterial expression plasmid consisting of the vector pRK172 carrying a cDNA encoding the human Tau 2N4R isoform was obtained from Dr. David Eliezer (Weill Cornell Medicine, New York, NJ). For protein expression, E. coli BL21(DE3) cells were transformed with the plasmid and grown in LB media supplemented with ampicillin (100 μg/mL). Protein over-expression was induced by the addition of 1 mM IPTG for 4 hours at 37° C., and cells were pelleted by centrifugation at 6,000 g for 15 minutes at 4° C. The cells were resuspended in lysis buffer (20 mM MES, 400 mM NaCl, 0.2 mM MgCl2, 1 mM EGTA, protease inhibitor cocktail (P8340, Sigma Aldrich), 0.25 mg/mL lysozyme, and 1 μg/mL DNase 1, pH 6.8) and lysed by a French press cell disruptor at 4° C., after which the lysate was boiled for 20 minutes. Denatured proteins were pelleted by centrifugation at 30,000 g for 30 minutes at 4° C., and the supernatant was dialyzed overnight against cation exchange buffer (20 mM MES, 50 mM NaCl, 1 mM MgCl2, 1 mM EGTA, 2 mM DTT, 0.1 mM PMSF, pH 6.8). The dialysate was loaded onto a HiPrep SP HP column, and proteins were eluted with a linear gradient ranging from 50 mM to 1 M NaCl. Fractions containing tau isoform 2N4R were pooled, and the resulting protein solution was dialyzed against PBS (pH 7.4) and stored at −80° C.
# as §2
# Aβ1-42 = biological target: T4, Aβ1-42 (Homo sapiens, UniProt P05067); assay: ThT fluorescence assay of Aβ1-42 fibril formation; assay type: biochemical; settings: screen on prone-to-aggregate proteins (FIG. 2A, FIG. 4A); Aβ 7 μM
# T4 construct: α-syn, Aβ1-40, Aβ1-42 were procured from rPeptide; purchased rPeptide
# Description: as §1
# TTR101-125 = biological target: T5, TTR101-125 (Homo sapiens, UniProt P02766); assay: ThT fluorescence assay of TTR101-125 fibril formation; assay type: biochemical
# T5 construct: TTR fragments 1-25, 26-50, 51-75, 76-100, 81-105, 101-125, and 101-125 were obtained from GenScript; purchased GenScript; host or cells: synthetic peptide
# Description: as §1
# α-syn [4] = biological target: T2, α-syn; assay: Transmission electron microscopy (TEM) of α-syn fibrils; assay type: biochemical; settings: compound 100 μM
# Description: (§4) Transmission electron microscopy (TEM). After performing analysis with ThT fluorescence assay, TEM was utilized to detect fibril formation. A volume of 10 μL was applied to a 400-mesh Formvar-carbon-coated copper grid (Electron Microscopy Sciences, Hatfield, PA). The grids were incubated for 1 minute and washed three times with distilled water. They were carefully air-dried and incubated for 1 minute in a fresh solution of 1% uranyl acetate. Samples were air-dried and observed using a transmission microscope. Visualization of the grids was performed with TEM (JEOL 1400 Flash, Japan). Acquisition of pictures was performed with settings of accelerating voltage of 100 kV and magnification of 25 k and/or 40 k.
# TTR81-127 = biological target: T6, TTR81-127 (Homo sapiens, UniProt P02766); assay: TEM of TTR81-127 fibrils; assay type: biochemical; settings: compound 100 μM, TTR81-127 10 μM, sodium acetate buffer pH 4
# T6 construct: TTR fragment 81-127 was obtained from AnaSpec; purchased AnaSpec; host or cells: synthetic peptide
# IAPP = biological target: T7, IAPP (Homo sapiens, UniProt P10997); assay: TEM of IAPP fibrils; assay type: biochemical; settings: compound 100 μM, IAPP 10 μM, PBS
# T7 construct: Human islet amyloid polypeptide (IAPP) was procured from AnaSpec; purchased AnaSpec; host or cells: synthetic peptide
# T7 sequence (P10997 34-70 limits assumed): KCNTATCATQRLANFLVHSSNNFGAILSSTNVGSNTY
# Description: as §4
# [5] = test system: M17D neuroblastoma cells that express inclusion-prone αS-3K::YFP; assay: α-Syn inclusion-forming neuroblastoma cell experiment; assay type: cell-based; settings: 40 μM; t=96 hours
# Description: α-Syn (or αS) inclusion-forming neuroblastoma cell experiment. Dox-inducible neuroblastoma cells M17D-TR/αS-3K::YFP have been used previously. 96-well plates were used with a cellular density of 30,000 cells per well. Compounds were added […], and αS-3K::YFP transgene expression was induced […]. Induction was done by adding 1 μg per mL (final concentration) dox to culture media. Cells were incubated in the Incucyte Zoom 2000 platform (Essen Biosciences), and images (green, bright field) were taken continuously. Endpoint analysis of inclusion formation or growth was performed 48 hours after induction (96 hours after plating). The Incucyte processing definition ‘Inclusions’ was created as follows: Parameters, Fixed Threshold, Threshold (GCU) 50; Edge Split On, Edge Sensitivity 100; Cleanup, Hole Fill (μm^2): 10, Adjust Size (pixels): 0; Filters, Area (μm^2): max 50, Mean Intensity: min 60, Integrated Intensity: min 2000. Cell confluence was measured by the processing definition ‘Cells’: Parameters, Segmentation Adjustment 0.7; Cleanup, all parameters set to 0; Filters, Area (μm^2): min 345.00. As described previously for the evaluation of protein expression by SDS-PAGE and Western Blotting in the LiCor system, αS-specific monoclonal antibody 4B12 (Thermofisher, Waltham, MA; 1:1000) and a polyclonal antibody to GAPDH (Sigma-Aldrich, St. Louis, MO, G9545; 1:5000) were used.
# α-synuclein (α-syn) = biological target: T8, α-synuclein (α-syn) (Homo sapiens, UniProt P37840); assay: Thioflavin-T (ThT) fluorescence assay of α-syn fibril formation; assay type: biochemical; settings: for remaining activity at 100 µM: compounds at 100 μM, α-syn 6.25 μM, control 0.25% DMSO, read-out: ThT a-Syn (%), maximum thioflavin T (ThT) intensity in percentage
# T8 construct: purchased rPeptide
# Description: as §1
# (§5) Compounds with the highest anti-fibrillary activity were tested at 3.125, 6.25, 12.5, 25, 50, and 100 μM to obtain dose-response curves with prepared α-syn and 2N4R tau at 6.25 μM and 6 μM, respectively. Compounds were tested with α-syn using a previously published procedure. Concerning the tau (isoform 2N4R) kinetics of fibril formation, measurements of ThT fluorescence were performed with a solution of the protein diluted to a final concentration of 6 μM in PBS (pH 7.4) supplemented with 1.5 μM heparin, 20 μM ThT, 2.5 mM DTT, and 100 μM compound. Aliquots of the diluted protein solution (100 μL each) were pipetted into the wells of a 96-well plate, and a Teflon ball was added to each well. The plate was incubated at 37° C. with constant shaking at 1,000 rpm in a Tecan Spark plate reader. ThT fluorescence was measured every 15 minutes with excitation and emission wavelengths of 440 nm and 480 nm, and the data were plotted using GraphPad Prism.
# [6] = biological target: T9, islet amyloid polypeptide (IAPP) (Homo sapiens, UniProt P10997); assay: ThT fluorescence assay of IAPP fibril formation; assay type: biochemical; settings: screen on prone-to-aggregate proteins (FIG. 2A, FIG. 4A); IAPP 10 μM
# T9 construct: Human islet amyloid polypeptide (IAPP) was procured from AnaSpec; purchased AnaSpec; host or cells: synthetic peptide
# T9 sequence (P10997 34-70 limits assumed): T7 sequence (P10997 34-70 limits assumed)
# Description: as §1, with “All results contained in histograms were presented as mean±SEM. Data were analyzed by the one-way analysis of variance with Dunnett's multiple comparisons between controls and compounds. Differences were considered statistically significant at p<0.05.” left out
# Aβ1-40 = biological target: T10, Aβ1-40 (Homo sapiens, UniProt P05067); assay: ThT fluorescence assay of Aβ1-40 fibril formation; assay type: biochemical; settings: screen on prone-to-aggregate proteins (FIG. 4A); Aβ 7 μM
# T10 construct: α-syn, Aβ1-40, Aβ1-42 were procured from rPeptide; purchased rPeptide
# Description: as §1, with “All results contained in histograms were presented as mean±SEM. Data were analyzed by the one-way analysis of variance with Dunnett's multiple comparisons between controls and compounds. Differences were considered statistically significant at p<0.05.” left out
# tau isoform 2N4R [7] = biological target: T3, tau isoform 2N4R; assay: ThT kinetics of tau isoform 2N4R fibril formation; assay type: biochemical; settings: tau 6 μM, compound 100 μM
# Description: as §3, §5
# α-syn [8] = biological target: T2, α-syn; assay: Photo-induced cross-linking of unmodified proteins (PICUP), α-syn oligomerization; assay type: biochemical; settings: compound 200 μM
# [9] = compound 100 μM, molar ratio 1:10
# [10] = screen on prone-to-aggregate proteins (FIG. 2A, FIG. 4A)
# T3 sequence (P10636 1-441 isoform P10636-8): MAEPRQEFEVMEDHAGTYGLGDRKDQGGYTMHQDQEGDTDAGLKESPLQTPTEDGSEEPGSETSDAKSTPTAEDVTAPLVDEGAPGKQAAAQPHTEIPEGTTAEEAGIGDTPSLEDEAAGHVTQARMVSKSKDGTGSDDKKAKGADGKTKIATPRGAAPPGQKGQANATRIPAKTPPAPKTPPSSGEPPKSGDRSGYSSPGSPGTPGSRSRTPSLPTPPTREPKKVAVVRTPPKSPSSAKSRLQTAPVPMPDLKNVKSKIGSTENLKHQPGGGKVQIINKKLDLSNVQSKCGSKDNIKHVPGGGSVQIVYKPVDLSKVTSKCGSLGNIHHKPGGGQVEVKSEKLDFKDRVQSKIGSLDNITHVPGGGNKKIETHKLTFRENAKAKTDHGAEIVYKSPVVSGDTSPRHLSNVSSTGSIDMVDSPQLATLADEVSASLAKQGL
# T4 sequence (P05067 672-713 limits assumed): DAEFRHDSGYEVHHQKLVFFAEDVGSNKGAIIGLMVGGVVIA
# T10 sequence (P05067 672-711 limits assumed): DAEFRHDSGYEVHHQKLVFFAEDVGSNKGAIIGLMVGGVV
compound,measurement,setting,value
"Nc1ccc(-c2nc3ccccc3s2)cc1 [BTA, 4-(2-benzothiazolyl)aniline, reference compound]",TTR81-127 fibril formation (ThT),[1]; [9],reduced fibril formation
same,α-syn oligomer formation (PICUP),α-syn [2],not successful in preventing oligomerization
same,tau isoform 2N4R oligomer formation (PICUP),tau isoform 2N4R [3],not successful in preventing oligomerization
same,"thioflavin T fluorescence intensity, Aβ1-42",Aβ1-42,22.59±0.71%
same,TTR101-125 fibril formation (ThT),"TTR101-125; compound 25 μM, molar ratio 1:2.5",continued to reduce TTR101-125 fibrils
same,TTR101-125 fibril formation (ThT),TTR101-125; [9],reduced fibril formation
same,α-syn fibrils by TEM,α-syn [4],no such branching was observed
same,TTR81-127 fibrils by TEM,TTR81-127,reduced fibril formation
same,IAPP fibrils by TEM,IAPP,no such branching was observed
same,cell confluence,[5],reduction in confluence
same,number of αS-3K::YFP inclusions,[5],did not affect the number of inclusions
"Clc1nc(Cl)nc(Nc2ccc(-c3nc4ccccc4s3)cc2)n1 [Compound 5, N-[4-(1,3-benzothiazol-2-yl)phenyl]-4,6-dichloro-1,3,5-triazin-2-amine]",remaining activity at 100 µM,α-synuclein (α-syn),> 100%
same,"thioflavin T fluorescence intensity, α-syn",α-synuclein (α-syn); [10],greater than 100%
same,remaining activity at 100 µM,[1],> 100%
same,"thioflavin T fluorescence intensity, TTR81-127",[1]; [10],greater than 100%
same,α-syn oligomer formation (PICUP),α-syn [2],high molecular weight bands representing the oligomeric species
same,tau isoform 2N4R oligomer formation (PICUP),tau isoform 2N4R [3],high molecular weight bands representing the oligomeric species
same,"thioflavin T fluorescence intensity, IAPP",[6],greater than 100%
same,"thioflavin T fluorescence intensity, Aβ1-40",Aβ1-40,greater than 100%
same,"thioflavin T fluorescence intensity, Aβ1-42",Aβ1-42,greater than 100%
same,"thioflavin T fluorescence intensity, TTR101-125",TTR101-125; screen on prone-to-aggregate proteins (FIG. 4A),greater than 100%
"CCNC(=O)N(C(=O)NCC)c1nsc2ccc([N+](=O)[O-])cc12 [Compound 13, N-ethyl-1-[(ethylcarbamoyl)(5-nitro-1,2-benzothiazol-3-yl)amino]formamide]",remaining activity at 100 µM,α-synuclein (α-syn),16.4 ± 7.8%
same,remaining activity at 100 µM,[1],73.4 ± 1.9%
same,lag time of tau isoform 2N4R fibril formation,tau isoform 2N4R [7],delayed the lag time
same,production of tau isoform 2N4R fibrils (ThT kinetic aggregation curves),tau isoform 2N4R [7],reduced the production of tau isoform 2N4R fibrils
same,α-syn oligomer formation (PICUP) at high concentration,α-syn [8],reduced substantially the oligomer formation
